Our source for the IC50 values is ChEMBL document CHEMBL3886504, “Pyridinones/pyrazinones, method of making, and method of use thereof” (2016).

Structures are written as SMILES.

In this assay the target is Tyrosine-protein kinase BTK (Homo sapiens, UniProt Q06187). The experiment in a line: Biochemical Btk Assay: A generalized procedure for a standard biochemical Btk Kinase Assay that can be used to test Formula I compounds is as follows. A master mix minus Btk enzyme is prepared containing 1x Cell Signaling kinase buffer (25 mM Tris-HCl, pH 7.5, 5 mM beta-glycerophosphate, 2 mM dithiothreitol, 0.1 mM Na3VO4, 10 mM MgCl2), 0.5 μM Promega PTK Biotinylated peptide substrate 2, and 0.01% BSA. A master mix plus Btk enzyme is prepared containing 1x Cell Signaling kinase buffer, 0.5 μM PTK Biotinylated peptide substrate 2, 0.01% BSA, and 100 ng/well (0.06 mU/well) Btk enzyme. Btk enzyme is prepared as follows: full length human wildtype Btk (accession number NM-000061) with a C-terminal V5 and 6xHis tag was subcloned into pFastBac vector for making baculovirus carrying this epitope-tagged Btk.
Tyrosine-protein kinase BTK, sequence (Q06187 whole entry): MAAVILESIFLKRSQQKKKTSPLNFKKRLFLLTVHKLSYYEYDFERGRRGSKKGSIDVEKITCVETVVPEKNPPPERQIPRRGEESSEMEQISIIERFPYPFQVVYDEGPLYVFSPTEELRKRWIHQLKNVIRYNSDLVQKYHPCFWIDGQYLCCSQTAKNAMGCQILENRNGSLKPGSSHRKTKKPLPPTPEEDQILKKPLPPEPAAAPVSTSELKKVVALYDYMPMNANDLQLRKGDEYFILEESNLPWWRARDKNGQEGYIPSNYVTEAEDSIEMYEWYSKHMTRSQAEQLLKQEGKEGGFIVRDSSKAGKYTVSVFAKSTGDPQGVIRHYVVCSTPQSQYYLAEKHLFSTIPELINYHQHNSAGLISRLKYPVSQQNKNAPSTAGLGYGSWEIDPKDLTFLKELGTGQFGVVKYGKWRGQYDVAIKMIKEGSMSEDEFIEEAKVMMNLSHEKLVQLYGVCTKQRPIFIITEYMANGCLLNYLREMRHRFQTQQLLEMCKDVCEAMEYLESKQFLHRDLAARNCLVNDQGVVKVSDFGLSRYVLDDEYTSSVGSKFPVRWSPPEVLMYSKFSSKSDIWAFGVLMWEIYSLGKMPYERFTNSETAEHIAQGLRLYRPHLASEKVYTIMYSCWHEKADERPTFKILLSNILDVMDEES
The term IC50 denotes the concentration that gives 50% inhibition. For `Cc1c(-c2cn(C)c(=O)c(Nc3ccc(C(=O)N4CCOCC4)cc3)n2)cccc1N1Cc2cc(C(C)(C)C)ccc2C1=O`, the IC50 stood at 36.4 nM.

As for `Cc1c(-c2cn(C)c(=O)c(Nc3ccc(C4C(=O)N(C)CCN4C)cc3)n2)cccc1N1Cc2cc(N3CCCCC3)ccc2C1=O` (stereo not drawn), the IC50 amounted to 245 nM. Turning to `Cc1c(-c2cn(C)c(=O)c(Nc3ccc(C4C(=O)N(C)CCN4C)cc3)n2)cccc1N1Cc2cc(C(C)(C)C)ccc2C1=O` (stereo not drawn), the IC50 stood at 29.4 nM.
